Results: article PMC6493727, “FluoroCellTrack: An algorithm for automated analysis of high-throughput droplet microfluidic data” (PLoS ONE, 2019)

Tested on: OPM-2 cells
Experiment: Dose response of single OPM-2 cells to Bortezomib, live/dead staining in a droplet trapping array
Type: cell-based
Details: for Dead Cells / Live Cells: Calcein AM/EthD-1 staining; for Dead Cells / Live Cells / Overlapping Cells: FluoroCellTrack automated count, n=787 droplets
Description: First, a mask was generated by detecting differently colored cells from the input image, Fig 3A. This mask (Fig 3B) was overlapped with the input image and was subjected to edge detection, dilation and erosion to yield Fig 3C, which was then segmented through random walker algorithm to detect and distinguish attached cells. Random walker segmentation algorithm was used over traditional watershed algorithm due to its highly precise probabilistic interpretation of local maxima (Fig 3D). The distinguished contours from this image were then filtered for area, where cellular area equal to or greater than 130 pixels were outlined and labeled as shown in Fig 3E. 130 was selected as the thresholding value due to the mean cellular area being ~140 pixels. This step was essential to exclude debris to eliminate false positives. However, in case of co-culture platforms, where primary cells are of the same size as that of the secondary cells, or in systems where the debris is of the same size as that of the cells, specific cellular or organelle staining can be used to distinguish these features and the extensive palette used in computer vision aids in easy detection of such features. […] For instance, similar features with slight deviations in shape, size and orientation were easily detected by the droplet/contour detection steps of FluoroCellTrack but would need a repository of many templates while using the template matching feature, showing that the latter can be highly uneconomical. The broad palette of colors in computer vision can be exploited here to detect any fluorescent cell and as an example here, the contour detection step was implemented to quantify actual cellular viability data as shown in Fig 4. Lower [B, G, R]: [0, 51, 0] and upper [B, G, R]: [153, 255, 153] boundaries were given for live cells and, dead cells were identified with the lower and upper color boundaries at; [153, 153, 255] while overlapping cells were identified with lower and upper color boundaries of [0, 51, 51]; [153, 255, 255]. Cells with overlapping signals in both the green and red filter sets represent cells with compromised plasma membranes (indicative of a dead cell), but with remaining esterase activity to react with the Calcein AM. These cells were noted as ‘dying’ cells to distinguish them from the clean live and dead signals using the other contour boundaries. The contours with specific colors were detected from the input images, where the positively detected live, dead and overlapping cells with an area equal to or greater than 130 pixels were outlined with distinct colors: live cells in red, dead cells in blue and overlapping cells in purple (Fig 4). The outlined cell-center map was overlaid with the droplet center map and scanned to fit within 25<R<50-micron values (denoted by white arrows), to account for single/multiple cell encapsulation information as shown in the output data of Fig 4. This step was essential to calculate the single-cell encapsulation efficiency and to eliminate cells that were freely floating in the device, thus including cells that were only inside the droplets. Additionally, the user can easily eliminate the droplet detection step to use this contour detection as a stand-alone platform (similar to ImageJ and Cell Profiler) to detect and quantify properties of fluorescent cells from other microfluidic or non-microfluidic applications. The advantage of FluoroCellTrack over current software tools like ImageJ and Cell Profiler lies in the fact that the former can be employed in non-droplet microfluidic platforms in addition to droplet microfluidics, but the latter cannot be used to quantify high-throughput droplet microfluidic data.
An important application of any automated platform is to count cells and sort them based on their fluorescent response. As an example, the dose-dependent single cell response of OPM-2 cells to a clinical inhibitor, Bortezomib was observed. […]

## CC(C)C[C@H](NC(=O)[C@H](Cc1ccccc1)NC(=O)c1cnccn1)B(O)O [BTZ, Bortezomib]
1 nM BTZ, Day 1 (24 h)
  Dead Cells: 5
  Live Cells: 311
1 nM BTZ, Day 1 (24 h), overlapping = dying cells (green and red signal)
  Overlapping Cells: 28
1 nM BTZ, Day 2 (48 h)
  Dead Cells: 10
  Live Cells: 53
1 nM BTZ, Day 2 (48 h), overlapping = dying cells
  Overlapping Cells: 45
1 nM BTZ, Day 3 (72 h)
  Dead Cells: 53
  Live Cells: 140
1 nM BTZ, Day 3 (72 h), overlapping = dying cells
  Overlapping Cells: 206
1 nM, 10 nM and 100 nM, 24 h, 48 h and 72 h incubation
  viability of single OPM-2 cells: decrease in viability at increasing concentrations and incubation times
10 nM BTZ, Day 1 (24 h)
  Dead Cells: 5
  Live Cells: 49
10 nM BTZ, Day 1 (24 h), overlapping = dying cells
  Overlapping Cells: 38
10 nM BTZ, Day 2 (48 h)
  Dead Cells: 67
  Live Cells: 15
10 nM BTZ, Day 2 (48 h), overlapping = dying cells
  Overlapping Cells: 113
10 nM BTZ, Day 3 (72 h)
  Dead Cells: 92
  Live Cells: 0
10 nM BTZ, Day 3 (72 h), overlapping = dying cells
  Overlapping Cells: 107
100 nM BTZ, Day 1 (24 h)
  Dead Cells: 75
  Live Cells: 0
100 nM BTZ, Day 1 (24 h), overlapping = dying cells
  Overlapping Cells: 100
100 nM BTZ, Day 2 (48 h)
  Dead Cells: 320
  Live Cells: 3
100 nM BTZ, Day 2 (48 h), overlapping = dying cells
  Overlapping Cells: 149
100 nM BTZ, Day 3 (72 h)
  Dead Cells: 108
  Live Cells: 0
100 nM BTZ, Day 3 (72 h), overlapping = dying cells
  Overlapping Cells: 17
